Common to all, as to assay type: functional, organism-based
What all share (settings): Cercopithecidae

The test system of test [1] is Monkey. Briefly: The compound was evaluated for the rating of psychotropic effects in rhesus monkey at a dose of 0.1 mg/Kg; value is (++) stupor, ataxia, suppression of motor activity, full ptosis.
Test [2] concerns Monkey. Briefly: The compound was evaluated for the rating of psychotropic effects in rhesus monkey at a dose of 0.05 mg/Kg; value is (-) No change.
In test [3] the test system is Monkey. Briefly: The compound was evaluated for the rating of psychotropic effects in rhesus monkey at a dose of 0.25 mg/Kg; value is (++) stupor, ataxia, suppression of motor activity, full ptosis.
Test [4] has as its system Monkey. Briefly: The compound was evaluated for the rating of psychotropic effects in rhesus monkey at a dose of 0.5 mg/Kg; value is (+) drowsiness, decreased motor activity, occasional partial ptosis, occasional head drop.
Test [5] deals with Monkey. Briefly: The compound was evaluated for the rating of psychotropic effects in rhesus monkey at a dose of 1 mg/Kg; value is (++) stupor, ataxia, suppression of motor activity, full ptosis.
The test system of test [6] is Monkey. Briefly: The compound was evaluated for the rating of psychotropic effects in rhesus monkey at a dose of 2 mg/Kg; value is (++) stupor, ataxia, suppression of motor activity, full ptosis.
Test [7] has as its system Monkey. Briefly: The compound was evaluated for the rating of psychotropic effects in rhesus monkey at a dose of 2 mg/Kg; value is (-) No change.
Test [8] concerns Monkey. Briefly: The compound was evaluated for the rating of psychotropic effects in rhesus monkey at a dose of 5 mg/Kg; value is (-) No change.
The subject of test [9] is Monkey. Briefly: The compound was evaluated for the rating of psychotropic effects in rhesus monkey at a dose of 1 mg/Kg; value is (-) No change.
Test [10] has as its system Monkey. Briefly: The compound was evaluated for the rating of psychotropic effects in rhesus monkey at a dose of 0.1 mg/Kg; value is (+/-) tranquility.
Test [11] concerns Monkey. Briefly: The compound was evaluated for the rating of psychotropic effects in rhesus monkey at a dose of 0.5 mg/Kg; value is (++) stupor, ataxia, suppression of motor activity, full ptosis.
Test [12] relates to Monkey. Briefly: The compound was evaluated for the rating of psychotropic effects in rhesus monkey at a dose of 2 mg/Kg; value is (+) drowsiness, decreased motor activity, occasional partial ptosis, occasional head drop.
Test [13] relates to Monkey. Briefly: The compound was evaluated for the rating of psychotropic effects in rhesus monkey at a dose of 5 mg/Kg; value is (+) drowsiness, decreased motor activity, occasional partial ptosis, occasional head drop.
Test [14] has as its system Monkey. Briefly: The compound was evaluated for the rating of psychotropic effects in rhesus monkey at a dose of 0.25 mg/Kg; value is (-) No change.

The source made the active and inactive calls. The calls are words filed in the database; no cut-off is given here.

Consider `CCCCCc1cc(O)c2c(c1)OC(C)(C)[C@@H]1CCC(C)=C[C@@H]21`, for which the outcome in test [1] and in test [3] was Active. The outcome in [2] was inactive.
In the case of `CCCCCc1cc(OC(C)=O)c2c(c1)OC(C)(C)[C@@H]1CCC(COC(C)=O)CC21` (stereo not given in full), the Activity result in [4] was “drowsiness, decreased motor activity, occasional partial ptosis, occasional head drop”; in [5], “drowsiness, decreased motor activity, occasional partial ptosis, occasional head drop”.
Regarding `CCCCCc1cc(O)c2c(c1)OC(C)(C)[C@@H]1CC[C@H](C)[C@H](O)C21` (stereo not given in full), the Activity entry is recorded as “drowsiness, decreased motor activity, occasional partial ptosis, occasional head drop” in test [4]; “drowsiness, decreased motor activity, occasional partial ptosis, occasional head drop” in [5]; “drowsiness, decreased motor activity, occasional partial ptosis, occasional head drop” in test [6].
Consider `CCCCCc1cc(O)c2c(c1)OC(C)(C)[C@@H]1C[C@H](O)C(C)CC21` (stereo not given in full), for which the result in [7], in test [8] and in test [9] was inactive.
Take `CCCCCc1cc(O)c2c(c1)OC(C)(C)[C@@H]1CC=C(C)CC21` (stereo not given in full): the result in test [10] was inactive. In addition, the result in [11] and in test [3] was Active.
Turning to `CCCCCc1cc(O)c2c(c1)OC(C)(C)[C@@H]1CC[C@@H](C)CC21` (stereo not given in full), the Activity result in [10] was “+/-”; in test [11], “stupor,ataxia, suppression of motor activity, full ptosis”.
Consider `CCCCCc1cc(O)c2c(c1)OC(C)(C)[C@@H]1CC[C@H](C)CC21` (stereo not given in full), for which, in test [9], the outcome was inactive. For the same molecule, in [12], the Activity entry is listed as “drowsiness, decreased motor activity, occasional partial ptosis, occasional head drop”.
For `CCCCCc1cc(O)c2c(c1)OC(C)(C)[C@@H]1CCC(C)[C@H](O)C21` (stereo not given in full), in [13], the Activity entry is “drowsiness, decreased motor activity, occasional partial ptosis, occasional head drop”. In addition, the result in test [7] and in [9] was inactive.
Turning to `CCCCCc1cc(OC(C)=O)c2c(c1)OC(C)(C)[C@@H]1CC[C@H](COC(C)=O)CC21` (stereo not given in full), the outcome in test [8] and in [9] was inactive.
`CCCCCc1cc(O)c2c(c1)OC(C)(C)[C@@H]1CC(O)[C@H](C)CC21` (stereo not given in full): the outcome in [8] and in [9] was inactive.
`CCCCCc1cc(O)c2c(c1)OC(C)(C)[C@@H]1C[C@H](O)[C@H](C)CC21` (stereo not given in full): the Activity entry in test [4] is “drowsiness, decreased motor activity, occasional partialptosis,occasional head drop”; in [5], “drowsiness, decreased motor activity, occasional partialptosis,occasional head drop”. In addition, in test [14], the result was inactive.
As to `CCCCCc1cc(O)c2c(c1)OC(C)(C)[C@@H]1CC[C@H](C)C(O)C21` (stereo not given in full), the result in test [8] and in test [9] was inactive.

(Values after ChEMBL document CHEMBL1121535, “Stereochemical requirements for cannabinoid activity” (J Med Chem, 1980).)
